These results are taken from patent US12612599B2, “Compositions and methods for microglia replacement therapy” (Savanna Biotherapeutics, Inc., priority 2018, dated 2026).

This experiment relates to bone marrow derived macrophages (BMDMs) expressing human CSF1R variants. The experiment in a line: In vitro survival assay of retrovirally transduced bone marrow derived macrophages expressing CSF1R variants under PLX3397. In kind it is cell-based, mouse. To be noted: PLX3397 100 nM, 48 hours, CellTiter-Glo 2; compared to cells expressing WT CSF1R; FIG. 23.
On to “D796A: human CSF1R variant, SEQ ID NO: 12”, for which the “ratio between number of cells following treatment with CSF1R inhibitor (PLX-3397) + CSF1 and number of cells following complete deprivation of CSF1” value is on record as “higher ratio than cells expressing WT CSF1R”.
“G795A: human CSF1R variant, SEQ ID NO: 10”: the “ratio between number of cells following treatment with CSF1R inhibitor (PLX-3397) + CSF1 and number of cells following complete deprivation of CSF1” value is “higher ratio than cells expressing WT CSF1R”.
Consider “M637L: human CSF1R variant, SEQ ID NO: 11”, for which the “ratio between number of cells following treatment with CSF1R inhibitor (PLX-3397) + CSF1 and number of cells following complete deprivation of CSF1” value is “higher ratio than cells expressing WT CSF1R”.
As for “Y546F: human CSF1R variant, SEQ ID NO: 14”, the “ratio between number of cells following treatment with CSF1R inhibitor (PLX-3397) + CSF1 and number of cells following complete deprivation of CSF1” value was “higher ratio than cells expressing WT CSF1R”.
